16 molecules from patent publication US12187723B2 (BRISTOL-MYERS SQUIBB COMPANY, priority 2019, dated 2025) can be followed below.

One assay concerns the target T1, human TLR8 (Homo sapiens, UniProt Q9NR97).
T1 construct: host or cells: HEK-Blue cells
T1 sequence (Q9NR97 27-1041): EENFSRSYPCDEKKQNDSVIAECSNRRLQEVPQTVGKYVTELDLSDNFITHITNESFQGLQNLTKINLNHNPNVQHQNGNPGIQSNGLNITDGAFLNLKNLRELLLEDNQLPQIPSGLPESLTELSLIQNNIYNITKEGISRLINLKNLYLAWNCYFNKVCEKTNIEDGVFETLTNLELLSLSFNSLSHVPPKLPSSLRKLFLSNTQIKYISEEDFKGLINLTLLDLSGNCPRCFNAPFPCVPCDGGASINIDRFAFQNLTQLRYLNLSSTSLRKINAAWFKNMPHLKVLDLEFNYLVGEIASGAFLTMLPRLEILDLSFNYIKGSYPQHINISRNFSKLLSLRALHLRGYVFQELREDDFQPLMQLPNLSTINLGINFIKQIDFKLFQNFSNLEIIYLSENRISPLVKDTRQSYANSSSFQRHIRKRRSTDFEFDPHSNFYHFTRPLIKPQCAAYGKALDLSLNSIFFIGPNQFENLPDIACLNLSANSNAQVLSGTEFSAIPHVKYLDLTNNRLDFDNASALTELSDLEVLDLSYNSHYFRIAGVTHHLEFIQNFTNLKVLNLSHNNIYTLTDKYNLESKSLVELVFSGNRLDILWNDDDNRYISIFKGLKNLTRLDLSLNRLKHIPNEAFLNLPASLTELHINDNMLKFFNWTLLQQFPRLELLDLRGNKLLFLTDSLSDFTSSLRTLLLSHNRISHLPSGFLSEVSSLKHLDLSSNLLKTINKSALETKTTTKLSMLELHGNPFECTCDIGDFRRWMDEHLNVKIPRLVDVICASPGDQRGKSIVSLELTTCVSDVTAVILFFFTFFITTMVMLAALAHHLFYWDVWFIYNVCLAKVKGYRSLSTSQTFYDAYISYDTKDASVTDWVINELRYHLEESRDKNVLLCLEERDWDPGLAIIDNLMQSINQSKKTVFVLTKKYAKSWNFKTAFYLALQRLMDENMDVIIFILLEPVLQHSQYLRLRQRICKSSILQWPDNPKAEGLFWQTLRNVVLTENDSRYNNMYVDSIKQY
As to the kind of experiment: TLR8 inhibition reporter assay (HEK-Blue SEAP). The assay is classed as cell-based. To be noted: HEK-Blue cells overexpressing human TLR8, R848 15.9 μM, 22 hour incubation. Put shortly:
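Human TLR7/8/9 HEK-Blue reporter lines; dose range 0.05 nM–50 μM; 30 min RT preincubation; stimulus gardiquimod 7.5 μM / R848 15.9 μM / ODN2006 5 nM respectively; 22 h, 37 °C; SEAP detected colorimetrically.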

The target in another assay is T2, human TLR7 (Homo sapiens, UniProt Q9NYK1).
T2 construct: host or cells: HEK-Blue cells
T2 sequence (Q9NYK1 27-1049): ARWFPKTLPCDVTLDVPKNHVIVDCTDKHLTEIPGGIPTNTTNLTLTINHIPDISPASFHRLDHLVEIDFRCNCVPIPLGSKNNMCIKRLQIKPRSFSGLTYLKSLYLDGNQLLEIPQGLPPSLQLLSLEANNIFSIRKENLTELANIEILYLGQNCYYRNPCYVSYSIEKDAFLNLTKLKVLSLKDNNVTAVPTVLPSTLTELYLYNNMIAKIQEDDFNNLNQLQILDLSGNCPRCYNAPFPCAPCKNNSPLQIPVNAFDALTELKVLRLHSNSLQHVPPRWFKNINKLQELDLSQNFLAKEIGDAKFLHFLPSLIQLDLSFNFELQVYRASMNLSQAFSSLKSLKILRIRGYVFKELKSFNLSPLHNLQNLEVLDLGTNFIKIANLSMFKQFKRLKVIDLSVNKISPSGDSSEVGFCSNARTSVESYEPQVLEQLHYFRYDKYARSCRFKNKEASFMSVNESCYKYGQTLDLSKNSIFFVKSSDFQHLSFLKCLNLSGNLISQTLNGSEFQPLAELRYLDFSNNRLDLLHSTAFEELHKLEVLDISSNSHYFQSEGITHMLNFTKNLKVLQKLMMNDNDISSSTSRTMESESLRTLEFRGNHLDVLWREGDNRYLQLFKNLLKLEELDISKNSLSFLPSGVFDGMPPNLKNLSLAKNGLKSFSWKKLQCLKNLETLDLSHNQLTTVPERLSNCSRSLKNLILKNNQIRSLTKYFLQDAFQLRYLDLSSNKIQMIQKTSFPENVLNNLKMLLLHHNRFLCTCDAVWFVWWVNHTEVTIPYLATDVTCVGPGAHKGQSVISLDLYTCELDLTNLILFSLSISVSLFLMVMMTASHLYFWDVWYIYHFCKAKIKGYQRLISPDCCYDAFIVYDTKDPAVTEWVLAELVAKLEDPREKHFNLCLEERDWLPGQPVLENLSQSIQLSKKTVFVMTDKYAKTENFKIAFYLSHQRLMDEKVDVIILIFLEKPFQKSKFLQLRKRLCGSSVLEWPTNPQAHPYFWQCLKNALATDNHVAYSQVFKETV
The assay is described as follows: TLR7 inhibition reporter assay (HEK-Blue SEAP). In kind it is cell-based. To be noted: HEK-Blue cells overexpressing human TLR7, gardiquimod 7.5 μM, 22 hour incubation. Put shortly: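 Cells (15000/well for TLR7, 20,000 for TLR8) were treated with compounds over 0.05 nM-50 μM final. After 22 h at 37° C, 5% CO2, SEAP was measured with HEK-Blue Detection reagent; percent inhibition was taken as reduction of agonist-plus-DMSO signal relative to a known inhibitor.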
(A reporter such as luciferase makes a cellular process visible.)

For the molecule `COc1cc(-c2cc3[nH]c(=O)n([C@@H]4CCCN(C5CCOCC5)C4)c3cc2C(C)C)cn2ncnc12` [Example 143, (R)-6-isopropyl-5-(8-methoxy-[1,2,4]triazolo[1,5-a]pyridin-6-yl)-1-(1-(tetrahydro-2H-pyran-4-yl)piperidin-3-yl)-1,3-dihydro-2H-benzo[d]imidazol-2-one], the IC50 (commonly the concentration needed to halve the response being measured) turned out to be 3.24 nM against human TLR8 and 3.35 nM against human TLR7.

On to `Cc1c(-c2cc3[nH]c(=O)n([C@@H]4CCCN(C)C4)c3cc2C(C)C)cn2ncnc2c1C` [Example 147, (R)-5-(7,8-dimethyl-[1,2,4]triazolo[1,5-a]pyridin-6-yl)-6-isopropyl-1-(1-methylpiperidin-3-yl)-1,3-dihydro-2H-benzo[d]imidazol-2-one], for which the IC50 at human TLR8 was determined as 23.5 nM; on human TLR7, 66.9 nM.

With `Cc1cc2c(cc1-c1cc(C)c3ncnn3c1)[nH]c(=O)n2C1CCN(C)CC1` [Example 3, 6-methyl-5-(8-methyl-[1,2,4]triazolo[1,5-a]pyridin-6-yl)-1-(1-methylpiperidin-4-yl)-1,3-dihydro-2H-benzo[d]imidazol-2-one], the IC50 at human TLR8 worked out at 36.8 nM; at human TLR7 it was 30.5 nM.

Turning to `Cc1c(-c2cc3[nH]c(=O)n([C@@H]4CCCN(C5COC5)C4)c3cc2C(C)C)cn2ncnc2c1C` [Example 146, (R)-5-(7,8-dimethyl-[1,2,4]triazolo[1,5-a]pyridin-6-yl)-6-isopropyl-1-(1-(oxetan-3-yl)piperidin-3-yl)-1,3-dihydro-2H-benzo[d]imidazol-2-one], the IC50 was determined as 6.05 nM at human TLR8 and 182 nM against human TLR7.

In the case of `CCCN1CCC(n2c(=O)[nH]c3cc(-c4cc(C)c5ncnn5c4)c(C)cc32)CC1` [Example 7, 6-methyl-5-(8-methyl-[1,2,4]triazolo[1,5-a]pyridin-6-yl)-1-(1-propylpiperidin-4-yl)-1,3-dihydro-2H-benzo[d]imidazol-2-one], the IC50 was 48.6 nM on human TLR8 and 41.8 nM against human TLR7.

For `CCCN(CCC)[C@H]1CC[C@@H](n2c(=O)[nH]c3cc(-c4cc(OC)c5ncnn5c4)c(CC)cc32)CC1` [Example 168, 1-((1s,4s)-4-(dipropylamino)cyclohexyl)-6-ethyl-5-(8-methoxy-[1,2,4]triazolo[1,5-a]pyridin-6-yl)-1,3-dihydro-2H-benzo[d]imidazol-2-one], the IC50 on human TLR8 is 1.53 nM; against human TLR7, 5.45 nM.

`COc1cc(-c2cc3[nH]c(=O)n(C4CCN(C)CC4)c3cc2C(C)C)cn2ncnc12` [Example 154, 6-isopropyl-5-(8-methoxy-[1,2,4]triazolo[1,5-a]pyridin-6-yl)-1-(1-methylpiperidin-4-yl)-1,3-dihydro-2H-benzo[d]imidazol-2-one]: the values for the IC50 at human TLR8 and on human TLR7 were 1.52 nM and 2.12 nM, respectively.

`CCc1cc2c(cc1-c1cc(OC)c3ncnn3c1)[nH]c(=O)n2[C@H]1CC[C@@H](NC(C)C)CC1` [Example 167, 6-ethyl-1-((1s,4s)-4-(isopropylamino)cyclohexyl)-5-(8-methoxy-[1,2,4]triazolo[1,5-a]pyridin-6-yl)-1,3-dihydro-2H-benzo[d]imidazol-2-one]: the 50% inhibitory concentration (IC50) at human TLR8 turned out to be 0.82 nM; against human TLR7 it was 3.08 nM.

With `COc1cc(-c2cc3[nH]c(=O)n([C@@H]4CCCN(C5COC5)C4)c3cc2C(C)C)cn2ncnc12` [Example 135, (R)-6-isopropyl-5-(8-methoxy-[1,2,4]triazolo[1,5-a]pyridin-6-yl)-1-(1-(oxetan-3-yl)piperidin-3-yl)-1,3-dihydro-2H-benzo[d]imidazol-2-one], the IC50 against human TLR8 stood at 20 nM; at human TLR7, 26.3 nM.

Regarding `COc1cc(-c2cc3[nH]c(=O)n(C4CCN(C5COC5)CC4)c3cc2C(C)C)cn2ncnc12` [Example 157, 6-isopropyl-5-(8-methoxy-[1,2,4]triazolo[1,5-a]pyridin-6-yl)-1-(1-(oxetan-3-yl)piperidin-4-yl)-1,3-dihydro-2H-benzo[d]imidazol-2-one], the IC50 on human TLR8 is 5.42 nM; on human TLR7, 76.8 nM.

For the molecule `COc1cc(-c2cc3[nH]c(=O)n([C@H]4CCCN(C(C)C)C4)c3cc2C(C)C)cn2ncnc12` [Example 120, (S)-6-isopropyl-1-(1-isopropylpiperidin-3-yl)-5-(8-methoxy-[1,2,4]triazolo[1,5-a]pyridin-6-yl)-1,3-dihydro-2H-benzo[d]imidazol-2-one], the IC50 against human TLR8 turned out to be 0.8 nM; against human TLR7, 0.64 nM.

Take `COc1cc(-c2cc3[nH]c(=O)n(C4CCN(CC5CCOC5)CC4)c3cc2C(C)C)cn2ncnc12` (centres unmarked) [Example 160, 6-isopropyl-5-(8-methoxy-[1,2,4]triazolo[1,5-a]pyridin-6-yl)-1-(1-((tetrahydrofuran-3-yl)methyl)piperidin-4-yl)-1,3-dihydro-2H-benzo[d]imidazol-2-one]: the half-maximal inhibitory concentration (IC50) is 5.62 nM on human TLR8 and 8.66 nM against human TLR7.

For the molecule `COc1cc(-c2cc3[nH]c(=O)n([C@@H]4CCCN(CC5CCOCC5)C4)c3cc2C(F)(F)F)cn2ncnc12` [Example 112, (R)-5-(8-methoxy-[1,2,4]triazolo[1,5-a]pyridin-6-yl)-1-(1-((tetrahydro-2H-pyran-4-yl)methyl)piperidin-3-yl)-6-(trifluoromethyl)-1,3-dihydro-2H-benzo[d]imidazol-2-one], the figures for the 50% inhibitory concentration (IC50) against human TLR8 and at human TLR7 were 20.3 nM and 30.8 nM, respectively.

Regarding `CCC(CC)CN1CCC[C@@H](n2c(=O)[nH]c3cc(-c4cc(OC)c5ncnn5c4)c(C(F)(F)F)cc32)C1` [Example 117, (R)-1-(1-(2-ethylbutyl)piperidin-3-yl)-5-(8-methoxy-[1,2,4]triazolo[1,5-a]pyridin-6-yl)-6-(trifluoromethyl)-1,3-dihydro-2H-benzo[d]imidazol-2-one], the values for the IC50 at human TLR8 and against human TLR7 were 33.3 nM and 64.4 nM, respectively.

Turning to `COCCN1CCC[C@@H](n2c(=O)[nH]c3cc(-c4cc(OC)c5ncnn5c4)c(C)cc32)C1` [Example 98, (R)-5-(8-methoxy-[1,2,4]triazolo[1,5-a]pyridin-6-yl)-1-(1-(2-methoxyethyl)piperidin-3-yl)-6-methyl-1,3-dihydro-2H-benzo[d]imidazol-2-one], the IC50 stood at 60.6 nM against human TLR8 and 20.5 nM at human TLR7.

Take `COc1cc(-c2cc3[nH]c(=O)n([C@H]4CCCN(CC5CCOCC5)C4)c3cc2C(C)C)cn2ncnc12` [Example 125, (S)-6-isopropyl-5-(8-methoxy-[1,2,4]triazolo[1,5-a]pyridin-6-yl)-1-(1-((tetrahydro-2H-pyran-4-yl)methyl)piperidin-3-yl)-1,3-dihydro-2H-benzo[d]imidazol-2-one]: the IC50 against human TLR8 turned out to be 2.37 nM; against human TLR7 it was 34.1 nM.
